Reference: patent US10738071B2, “Polymorphic forms of sofosbuvir” (Mylan Laboratories Limited, priority 2016, dated 2020)

Experiment: physical and chemical stability of sofosbuvir form-M3 on storage (water content, PXRD, HPLC purity)
Format: physicochemical
Procedure: The crystalline sofosbuvir form-M3 disclosed herein may be characterized by X-ray powder diffraction. Therefore, samples of crystalline sofosbuvir form-M3 were analyzed on a PANalytical, X'pert PRO powder diffractometer equipped with goniometer of θ/θ configuration and X'Celerator detector. The Cu-anode X-ray tube was operated at 40 kV and 30 mA. The experiments were conducted over the 2θ range of 2.0°-50.0°, 0.030° step size and 50 seconds step time.
Water content was determined on an 841 Titrando Karl-Fischer titrator (Metrohm) by placing 40 mL dehydrated methanol in the titration vessel and titrating with a standardized reagent to reach the electrometric endpoint. A sample (e.g., 0.20 g sofosbuvir form-M3) was added, the mixture was stirred for 1 minute, then titrated to the endpoint with a Karl-Fischer reagent. For each determination, fresh methanol was used. The following calculations may be used to determine water content of each sample:
The physical and chemical stability of sofosbuvir form-M3 was determined by storing the samples at 25±2° C./60±5% relative humidity (RH) and at 40±2° C./75±5% RH for 6 months. The samples were tested to determine water content, detect degradation crystalline form by PXRD analysis, and measure purity by HPLC analysis. HPLC analysis was performed by the parameters listed below:
Chromatographic Conditions:
Injection volume: 20.0 μL
Column oven temperature: 45° C.
Sample temperature: 10° C.
Acquisition time: 25 minutes
Water: Acetonitrile (80:20) % v/v
As an example, Table 1 below discloses data collected on sofosbuvir form-M3 under various storage conditions.

[1] = stored at 25 ± 2° C./60 ± 5% RH, 1 months
[2] = stored at 25 ± 2° C./60 ± 5% RH, 2 months
[3] = stored at 25 ± 2° C./60 ± 5% RH, 3 months
[4] = stored at 25 ± 2° C./60 ± 5% RH, 6 months
[5] = stored at 25 ± 2° C./60 ± 5% RH, Initial
[6] = stored at 40 ± 2° C./75 ± 5% RH, 1 months
[7] = stored at 40 ± 2° C./75 ± 5% RH, 2 months
[8] = stored at 40 ± 2° C./75 ± 5% RH, 3 months
[9] = stored at 40 ± 2° C./75 ± 5% RH, 6 months
[10] = stored at 40 ± 2° C./75 ± 5% RH, Initial
[11] = up to six months at 25±2° C./60±5% RH and at 40±2° C./75±5% RH

CC(C)OC(=O)[C@H](C)N[P@](=O)(OC[C@H]1O[C@@H](n2ccc(=O)[nH]c2=O)[C@](C)(F)[C@@H]1O)Oc1ccccc1 [sofosbuvir form-M3, (S)-isopropyl 2-((S)-(((2R,3R,4R,5R)-5-(2,4-dioxo3,4-dihydropyrimidin-1(2H)-yl)-4-fluoro-3-hydroxy-4-methyltetrahydrofuran-2yl)methoxy)-(phenoxy)phosphorylamino)propanoate]
HPLC Purity [1]: 99.90%
PXRD [1]: form-M3
Water content [1]: 3.39%
HPLC Purity [2]: 99.90%
PXRD [2]: form-M3
Water content [2]: 3.45%
HPLC Purity [3]: 99.89%
PXRD [3]: form-M3
Water content [3]: 3.35%
HPLC Purity [4]: 99.92%
PXRD [4]: form-M3
Water content [4]: 3.34%
HPLC Purity [5]: 99.92%
PXRD [5]: form-M3
Water content [5]: 3.59%
HPLC Purity [6]: 99.90%
PXRD [6]: form-M3
Water content [6]: 3.55%
HPLC Purity [7]: 99.90%
PXRD [7]: form-M3
Water content [7]: 3.33%
HPLC Purity [8]: 99.89%
PXRD [8]: form-M3
Water content [8]: 3.19%
HPLC Purity [9]: 99.91%
PXRD [9]: form-M3
Water content [9]: 3.00%
HPLC Purity [10]: 99.92%
PXRD [10]: form-M3
Water content [10]: 3.59%
change in PXRD pattern on storage [11]: no significant change in PXRD pattern
change in moisture content on storage [11]: no significant change in moisture content
change in purity on storage [11]: no significant change in purity
